Data as given in PubChem BioAssay AID2060891 (Molecular Pharmacology Branch, DTP, NCI, 2025).

System: K98450-129-R-PDC complex spheroid growth, percent test/control
Assay: Anticancer human tumor K98450-129-R-PDC patient-derived colon adenocarcinoma cell line growth inhibition [RAS]
Details: for IC50: curve of first compound; for viability, T/C: stronger effect = lower value
In short: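 Multi-cell-type spheroids: tumor cells plus HUVEC endothelial cells and mesenchymal stem cells. RAS-pathway inhibitors were combined with targeted agents, each dosed in half-log steps down from clinical Cmax, or from 10 microM when Cmax was unknown.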

[1] = second compound 0.0316 µM, first compound 0.0316 µM
[2] = second compound 0.0316 µM, first compound 0.1 µM
[3] = second compound 0.0316 µM, first compound 0.316 µM
[4] = second compound 0.0316 µM, first compound 1 µM
[5] = second compound 0.1 µM, first compound 0.0316 µM
[6] = second compound 0.1 µM, first compound 0.1 µM
[7] = second compound 0.1 µM, first compound 0.316 µM
[8] = second compound 0.1 µM, first compound 1 µM
[9] = second compound 0.316 µM, first compound 0.0316 µM
[10] = second compound 0.316 µM, first compound 0.1 µM
[11] = second compound 0.316 µM, first compound 0.316 µM
[12] = second compound 0.316 µM, first compound 1 µM
[13] = second compound 1 µM, first compound 0.0316 µM
[14] = second compound 1 µM, first compound 0.1 µM
[15] = second compound 1 µM, first compound 0.316 µM
[16] = second compound 1 µM, first compound 1 µM
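Also: spheroids exposed to agents for seven days before the viability readout.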
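For viability, T/C in this document: luminescence used as a proxy for viable cell amount.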

Compound `C=CC(=O)Nc1cc(Nc2nccc(-c3cn(C)c4ccccc34)n2)c(OC)cc1N(C)CCN(C)C` + C=CC(=O)N1CCN(c2nc(OCC3CCCN3C)nc3c(F)c(-c4nc(N)cc(C)c4C(F)(F)F)c(Cl)cc23)C(C)C1 has an IC50 (second compound 0.00316 µM) of 194 nM, an IC50 (second compound 0.01 µM) of 151 nM and an IC50 (second compound 0.0316 µM) of 54.3 nM. The IC50 (second compound 0.1 µM) was 10.5 nM, the IC50 (second compound 0.316 µM) was < 3.16 nM and the IC50 (second compound 1 µM) was < 3.16 nM. It also gave a viability, T/C (second compound 0.00316 µM, first compound 0.00316 µM) of 93.5%, a viability, T/C (second compound 0.00316 µM, first compound 0.01 µM) of 85.9% and a viability, T/C (second compound 0.00316 µM, first compound 0.0316 µM) of 91%. It also gave a viability, T/C (second compound 0.00316 µM, first compound 0.1 µM) of 83.5%, a viability, T/C (second compound 0.00316 µM, first compound 0.316 µM) of 25.5% and a viability, T/C (second compound 0.00316 µM, first compound 1 µM) of 9.6%. For the same compound, the viability, T/C (second compound 0.01 µM, first compound 0.00316 µM) was 94.4%, the viability, T/C (second compound 0.01 µM, first compound 0.01 µM) was 78% and the viability, T/C (second compound 0.01 µM, first compound 0.0316 µM) was 85.2%. The viability, T/C (second compound 0.01 µM, first compound 0.1 µM) was 71.3%, the viability, T/C (second compound 0.01 µM, first compound 0.316 µM) was 11.4% and the viability, T/C (second compound 0.01 µM, first compound 1 µM) was 8.81%. The viability, T/C (second compound 0.0316 µM, first compound 0.00316 µM) was 70.3%, the viability, T/C (second compound 0.0316 µM, first compound 0.01 µM) was 70.4% and the viability, T/C [1] was 63.6%. It also gave a viability, T/C [2] of 34.3%, a viability, T/C [3] of 9.39% and a viability, T/C [4] of 8.93%. The viability, T/C (second compound 0.1 µM, first compound 0.00316 µM) was 56.3%, the viability, T/C (second compound 0.1 µM, first compound 0.01 µM) was 47.9% and the viability, T/C [5] was 38.7%. For the same compound, the viability, T/C [6] was 17.6%, the viability, T/C [7] was 8.42% and the viability, T/C [8] was 8.07%. For the same compound, the viability, T/C (second compound 0.316 µM, first compound 0.00316 µM) was 39%, the viability, T/C (second compound 0.316 µM, first compound 0.01 µM) was 34.4% and the viability, T/C [9] was 29.3%. It also gave a viability, T/C [10] of 13.7%, a viability, T/C [11] of 10.3% and a viability, T/C [12] of 9.33%. For the same compound, the viability, T/C (second compound 1 µM, first compound 0.00316 µM) was 30.4%, the viability, T/C (second compound 1 µM, first compound 0.01 µM) was 27.1% and the viability, T/C [13] was 22.6%. For the same compound, the viability, T/C [14] was 13.8%, the viability, T/C [15] was 10.9% and the viability, T/C [16] was 9.84%.

With `CC1(O)CCCC1n1c(=O)c(C(F)F)cc2cnc(NC3CCN(S(C)(=O)=O)CC3)nc21` (centres undefined) + C#Cc1c(F)ccc2cc(O)cc(-c3ncc4c(N5CC6CCC(C5)N6)nc(OCC56CCCN5CC(F)C6)nc4c3F)c12 the IC50 (second compound 0.0316 µM) was > 10000 nM, the IC50 (second compound 0.1 µM) was > 10000 nM and the IC50 (second compound 0.316 µM) was > 10000 nM. For the same compound, the IC50 (second compound 1 µM) was > 10000 nM, the IC50 (second compound 3.16 µM) was > 10000 nM and the IC50 (second compound 10 µM) was > 10000 nM. The viability, T/C [1] was 105%, the viability, T/C [2] was 101% and the viability, T/C [3] was 91.3%. It also gave a viability, T/C [4] of 78.3%, a viability, T/C (second compound 0.0316 µM, first compound 3.16 µM) of 64.2% and a viability, T/C (second compound 0.0316 µM, first compound 10 µM) of 59.3%. It also gave a viability, T/C [5] of 108%, a viability, T/C [6] of 101% and a viability, T/C [7] of 91.7%. For the same compound, the viability, T/C [8] was 77.8%, the viability, T/C (second compound 0.1 µM, first compound 3.16 µM) was 65.8% and the viability, T/C (second compound 0.1 µM, first compound 10 µM) was 60.5%. The viability, T/C [9] was 106%, the viability, T/C [10] was 99.5% and the viability, T/C [11] was 92.4%. For the same compound, the viability, T/C [12] was 78.8%, the viability, T/C (second compound 0.316 µM, first compound 3.16 µM) was 65.5% and the viability, T/C (second compound 0.316 µM, first compound 10 µM) was 60.5%. It also gave a viability, T/C [13] of 104%, a viability, T/C [14] of 103% and a viability, T/C [15] of 89.3%. The viability, T/C [16] was 68.8%, the viability, T/C (second compound 1 µM, first compound 3.16 µM) was 58.8% and the viability, T/C (second compound 1 µM, first compound 10 µM) was 55.3%. The viability, T/C (second compound 3.16 µM, first compound 0.0316 µM) was 90.9%, the viability, T/C (second compound 3.16 µM, first compound 0.1 µM) was 94.2% and the viability, T/C (second compound 3.16 µM, first compound 0.316 µM) was 83.5%. For the same compound, the viability, T/C (second compound 3.16 µM, first compound 1 µM) was 73.7%, the viability, T/C (second compound 3.16 µM, first compound 3.16 µM) was 63.8% and the viability, T/C (second compound 3.16 µM, first compound 10 µM) was 57.3%. For the same compound, the viability, T/C (second compound 10 µM, first compound 0.0316 µM) was 89.8%, the viability, T/C (second compound 10 µM, first compound 0.1 µM) was 85.6% and the viability, T/C (second compound 10 µM, first compound 0.316 µM) was 80%. It also gave a viability, T/C (second compound 10 µM, first compound 1 µM) of 67.4%, a viability, T/C (second compound 10 µM, first compound 3.16 µM) of 57.4% and a viability, T/C (second compound 10 µM, first compound 10 µM) of 51%.
